Reference: patent US20100099642A1, “TGF-BETA STIMULANT AND FURTHER AGENT TO REDUCE SIDE EFFECTS” (TCP Innovations Limited, priority 2007, published 2010)

Legend:
tgfb1 mRNA = tgfb1 mRNA level by quantitative PCR in human aortic vascular smooth muscle cells; assay type: cell-based; details: 24 hrs, normalised to TBP, vs vehicle
Experimental: (1995) Cardiovasc. Res. 29:848-55). […] The cells were then incubated for either 24 hrs or 72 hrs depending on the experiment. All treatment conditions were established in triplicate. The level of mRNA for tgfb1, tgfb2 and tgfb3 were estimated by quantitative PCR. The media was removed and RNA was carefully prepared using the Ambion RNAqueous4PCR kit (Ambion#1914) in accordance with the manufacturer's instructions. The purity of the RNA and the quantity was assessed spectrophotometrically. […] This analysis results in both a gel-like image as well as electrophoretic data. Indications of RNA degradation are: (a) decreasing ratio of ribosomal bands (b) additional peaks bellow the ribosomal bands (c) Decrease in overall RNA signal (d) shift towards shorter fragments. All the mRNA samples used in the experiments presented here passed this RNA quality control step. Next, the RNA was converted to cDNA using the ABI High-Capacity cDNA Archive Kit, in accordance with manufacturer's instructions. The qPCR assay was then set up as follow: all cDNA samples were diluted to 180 μl total volume using Molecular grade water. Samples were vortexed to ensure thorough mixing. cDNA was aliquoted into ABI 384 well plates using a multi-channel pipette, 4.5 μl of sample into each well. Samples were assayed in triplicate (that is, nine determinations in total were made for each condition, being three separate assays on each of three replicate culture wells). The assay mix and Universal Master Mix were prepared and aliquoted across the 384 well plates 5.5 μl in each well, using a single channel pipette. The final composition of each reaction (10 μl) being: Primer/Probe assay mix (×20)=0.5 μl; Universal Master Mix=5 μl; cDNA=4.5 μl. The plates were then heat sealed using Abgene clear seal strong plastic heat seals, and then cycled and scanned using the […] under the following conditions: 95° C. for 10 minutes to activate the AmpliTaq GOLD, then 40 cycles of: 95° C. for 15 Sec (Denaturation), 60° C. for 60 […]). […] Quantitative PCR was performed using several primer/probe sets. […] We used both commercially available primer/probe sets (ABI Taqman pre-validated assays), using both available sets in the ABI database for tgfb1 and tgfb2, as well as the single available set for tgfb3. In addition, we used our own manual design probe/primer set for each of tgfb1, tgfb2 and tgfb3. For normalisation, we used TATA-binding protein (TBP) as the primary normalisation standard, with GAPDH as an alternative for confirmation, using ABI Taqman pre-validated probe/primer sets. […] Neither TBP nor GAPDH mRNA levels are affected by TGF-beta and are therefore equally suitable, however TBP was selected as the primary normalisation standard because the absolute level of mRNA in most cell types is similar to that of the TGF-beta isoforms, resulting in lower errors on calculating the ratio, and improving the power of the experiment. In all quantitative PCR experiments, several additional controls were included: firstly, a control for each sample is run with no reverse transcription to ensure the mRNA sample is not contaminated with genomic DNA (although the manual design probe/primer sets were all selected to cross an exon/exon boundary, ensuring no detectable amplicon is produced from genomic DNA templates). Secondly, a control reaction is run using serial 2-fold dilutions of a standard cDNA preparation (prepared from commercially available IMAGE clones). This control ensures that the results for the unknown samples are obtained in the linear range of the amplification process, and are therefore truly quantitative. Failure of either control led to the repeat of the entire experiment. Typically, the half maximal signal was obtained after 20-30 amplification cycles. […]

tgfb3 mRNA = tgfb3 mRNA level by quantitative PCR in human aortic vascular smooth muscle cells; assay type: cell-based; details: 24 hrs, normalised to TBP, vs vehicle
Experimental: (1995) Cardiovasc. Res. 29:848-55). […] The cells were then incubated for either 24 hrs or 72 hrs depending on the experiment. All treatment conditions were established in triplicate. The level of mRNA for tgfb1, tgfb2 and tgfb3 were estimated by quantitative PCR. The media was removed and RNA was carefully prepared using the Ambion RNAqueous4PCR kit (Ambion#1914) in accordance with the manufacturer's instructions. The purity of the RNA and the quantity was assessed spectrophotometrically. […] This analysis results in both a gel-like image as well as electrophoretic data. Indications of RNA degradation are: (a) decreasing ratio of ribosomal bands (b) additional peaks bellow the ribosomal bands (c) Decrease in overall RNA signal (d) shift towards shorter fragments. […] Next, the RNA was converted to cDNA using the ABI High-Capacity cDNA Archive Kit, in accordance with manufacturer's instructions. The qPCR assay was then set up as follow: all cDNA samples were diluted to 180 μl total volume using Molecular grade water. Samples were vortexed to ensure thorough mixing. cDNA was aliquoted into ABI 384 well plates using a multi-channel pipette, 4.5 μl of sample into each well. Samples were assayed in triplicate (that is, nine determinations in total were made for each condition, being three separate assays on each of three replicate culture wells). The assay mix and Universal Master Mix were prepared and aliquoted across the 384 well plates 5.5 μl in each well, using a single channel pipette. The final composition of each reaction (10 μl) being: Primer/Probe assay mix (×20)=0.5 μl; Universal Master Mix=5 μl; cDNA=4.5 μl. The plates were then heat sealed using Abgene clear seal strong plastic heat seals, and then cycled and scanned using the […] under the following conditions: 95° C. for 10 minutes to activate the AmpliTaq GOLD, then 40 cycles of: 95° C. for 15 Sec (Denaturation), 60° C. for 60 […]). […] Quantitative PCR was performed using several primer/probe sets. […] We used both commercially available primer/probe sets (ABI Taqman pre-validated assays), using both available sets in the ABI database for tgfb1 and tgfb2, as well as the single available set for tgfb3. In addition, we used our own manual design probe/primer set for each of tgfb1, tgfb2 and tgfb3. […] In all quantitative PCR experiments, several additional controls were included: firstly, a control for each sample is run with no reverse transcription to ensure the mRNA sample is not contaminated with genomic DNA (although the manual design probe/primer sets were all selected to cross an exon/exon boundary, ensuring no detectable amplicon is produced from genomic DNA templates). Secondly, a control reaction is run using serial 2-fold dilutions of a standard cDNA preparation (prepared from commercially available IMAGE clones). […] Failure of either control led to the repeat of the entire experiment.

| SMILES | Level of tgfb1 mRNA, estimated by qPCR (tgfb1 mRNA; 3.3 μM T) [fold-change] | Level of tgfb1 mRNA, estimated by qPCR (tgfb1 mRNA; 10 μM T) [fold-change] | Level of tgfb1 mRNA, estimated by qPCR (tgfb1 mRNA; 33 μM T, listed as T) [fold-change] | Level of tgfb1 mRNA, estimated by qPCR (tgfb1 mRNA; 33 μM T, listed as TMX) | Level of tgfb3 mRNA, estimated by qPCR (tgfb3 mRNA; 3.3 μM T) [fold-change] | Level of tgfb3 mRNA, estimated by qPCR (tgfb3 mRNA; 10 μM T) [fold-change] | Level of tgfb3 mRNA, estimated by qPCR (tgfb3 mRNA; 33 μM T) [fold-change] | Level of tgfb1 mRNA, estimated by qPCR (tgfb1 mRNA; 10 μM A) [fold-change] | Level of tgfb1 mRNA, estimated by qPCR (tgfb1 mRNA; 33 μM A) [fold-change] | Level of tgfb1 mRNA, estimated by qPCR (tgfb1 mRNA; 100 μM A) [fold-change] | Level of tgfb3 mRNA, estimated by qPCR (tgfb3 mRNA; 10 μM A) [fold-change] | Level of tgfb3 mRNA, estimated by qPCR (tgfb3 mRNA; 33 μM A) [fold-change] | Level of tgfb3 mRNA, estimated by qPCR (tgfb3 mRNA; 100 μM A) [fold-change] |
| --- | --- | --- | --- | --- | --- | --- | --- | --- | --- | --- | --- | --- | --- |
| CC/C(=C(\c1ccccc1)c1ccc(OCCN(C)C)cc1)c1ccccc1 [Tamoxifen] | 0.95 ± 0.16 | 1.27 ± 0.09 | 1.41 ± 0.08 | approximately 1.4 fold-change | 0.92 ± 0.16 | 1.19 ± 0.21 | 1.31 ± 0.11 |  |  |  |  |  |  |
| CC(=O)Oc1ccccc1C(=O)O [Aspirin, acetylsalicylic acid] |  |  |  |  |  |  |  | 1.01 ± 0.04 | 0.93 ± 0.11 | 1.06 ± 0.08 | 1.09 ± 0.08 | 1.06 ± 0.13 | 0.94 ± 0.09 |
